PubChem BioAssay AID248 (DTP/NCI, 2004)
“And” between values parts separate entries of the source, which are not always exact repeats. Identical values can stand only once. Toxic doses and inconclusive results are not listed. Cut-off read from the data, not from the text of the source: active = T/C of 150% or more; inactive = T/C below 125%.

Tested on: L1210 leukemia ip in BDF1 mice, survival T/C
Assay: NCI In Vivo Anticancer Drug Screen. Data for tumor model L1210 Leukemia (intraperitoneal) in B6D2F1 (BDF1) mice
Details: endpoint: mean survival time, higher = longer survival
Method in brief: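 Mice bearing the transplanted tumor received compound or vehicle. Survival of the treated group was divided by that of the vehicle-treated control group to give the ratio.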

[1] = dose: 50.0 mg/kg/injection, schedule: Q01DX001 (ip), vehicle: carboxymethylcellulose (CMC)
[2] = dose: 100.0 mg/kg/injection, schedule: Q01DX009 (ip), vehicle: saline with Tween-80
[3] = dose: 200.0 mg/kg/injection, schedule: Q01DX009 (ip), vehicle: saline with Tween-80
[4] = dose: 100.0 mg/kg/injection, schedule: Q04DX002 (ip), vehicle: Klucel (hydroxypropylcellulose) (HPC)
[5] = dose: 50.0 mg/kg/injection, schedule: Q01DX009 (ip), vehicle: saline with Tween-80
[6] = dose: 100.0 mg/kg/injection, schedule: Q01DX009 (ip), vehicle: saline
[7] = dose: 200.0 mg/kg/injection, schedule: Q01DX009 (ip), vehicle: saline
[8] = dose: 12.5 mg/kg/injection, schedule: Q01DX009 (ip), vehicle: saline with Tween-80

Measured: T/C

CCCCCCCC/C=N/Nc1nnc(N/N=C/CCCCCCCC)c2ccccc12
inactive: [1] 108 % of control | dose: 100.0 mg/kg/injection, schedule: Q01DX001 (ip), vehicle: carboxymethylcellulose (CMC) 114 % of control | dose: 177.0 mg/kg/injection, schedule: Q01DX001 (ip), vehicle: carboxymethylcellulose (CMC) 93 % of control and 111 % of control | dose: 200.0 mg/kg/injection, schedule: Q01DX001 (ip), vehicle: carboxymethylcellulose (CMC) 114 % of control | dose: 266.0 mg/kg/injection, schedule: Q01DX001 (ip), vehicle: carboxymethylcellulose (CMC) 119 % of control | dose: 400.0 mg/kg/injection, schedule: Q01DX001 (ip), vehicle: carboxymethylcellulose (CMC) 102 % of control | dose: 600.0 mg/kg/injection, schedule: Q01DX001 (ip), vehicle: carboxymethylcellulose (CMC) 101 % of control

N/N=C(\N)c1nn(C2OC(CO)C(O)C2O)c2ncnc(N)c12 (stereo unspecified)
inactive: dose: 60.0 mg/kg/injection, schedule: Q01DX005 (ip), vehicle: saline 116 % of control | dose: 100.0 mg/kg/injection, schedule: Q01DX005 (ip), vehicle: saline 124 % of control | dose: 200.0 mg/kg/injection, schedule: Q01DX005 (ip), vehicle: saline 113 % of control

O=c1[nH]c(C(F)(F)F)nc2[nH]ncc12
inactive: dose: 29.0 mg/kg/injection, schedule: Q01DX Z (ip), vehicle: methylcellulose (MC) 102 % of control | dose: 45.0 mg/kg/injection, schedule: Q01DX Z (ip), vehicle: methylcellulose (MC) 106 % of control | dose: 67.0 mg/kg/injection, schedule: Q01DX Z (ip), vehicle: methylcellulose (MC) 108 % of control | dose: 100.0 mg/kg/injection, schedule: Q01DX Z (ip), vehicle: methylcellulose (MC) 93 % of control

CCCCC#CC(=O)OCCCCC
inactive: [2] 105 % of control | [3] 91 % of control

CC(/C=N/N/C(N)=N\N)=N\N/C(N)=N/N
inactive: dose: 15.0 mg/kg/injection, schedule: Q01DX Z (ip), vehicle: methylcellulose (MC) 105 % of control | dose: 30.0 mg/kg/injection, schedule: Q01DX Z (ip), vehicle: methylcellulose (MC) 103 % of control | dose: 60.0 mg/kg/injection, schedule: Q01DX Z (ip), vehicle: methylcellulose (MC) 98 % of control | dose: 120.0 mg/kg/injection, schedule: Q01DX Z (ip), vehicle: methylcellulose (MC) 104 % of control | dose: 240.0 mg/kg/injection, schedule: Q01DX Z (ip), vehicle: methylcellulose (MC) 98 % of control

O=C(Nc1ccc(Cl)c(Cl)c1)C(Cl)Cl
inactive: [4] 109 % of control | dose: 400.0 mg/kg/injection, schedule: Q04DX002 (ip), vehicle: Klucel (hydroxypropylcellulose) (HPC) 103 % of control

CN(CCN(C)C(=S)S)C(=S)S
inactive: dose: 100.0 mg/kg/injection, schedule: Q01DX002 (ip), vehicle: saline 99 % of control | dose: 200.0 mg/kg/injection, schedule: Q01DX002 (ip), vehicle: saline 99 % of control | dose: 400.0 mg/kg/injection, schedule: Q01DX002 (ip), vehicle: saline 105 % of control

COc1cc2cc3c4cc(OC)c(OC)cc4cc[n+]3c(/C=C/c3ccccc3)c2cc1OC
inactive: dose: 100.0 mg/kg/injection, schedule: Q04DX003 (ip), vehicle: carboxymethylcellulose (CMC) 102 % of control | dose: 200.0 mg/kg/injection, schedule: Q04DX003 (ip), vehicle: carboxymethylcellulose (CMC) 110 % of control | dose: 400.0 mg/kg/injection, schedule: Q04DX003 (ip), vehicle: carboxymethylcellulose (CMC) 100 % of control

CC(=O)OC(c1ccccc1)c1ccccn1 (stereo unspecified)
inactive: [5] 105 % of control | [2] 98 % of control | [3] 94 % of control

O=C(O)c1ccccc1SCCO
inactive: [6] 109 % of control | [7] 94 % of control | dose: 400.0 mg/kg/injection, schedule: Q01DX009 (ip), vehicle: saline 95 % of control

Clc1nc(Cl)c(Cl)[nH]1
inactive: dose: 6.25 mg/kg/injection, schedule: Q01DX009 (ip), vehicle: saline with Tween-80 94 % of control | [8] 93 % of control

CC1CC(C)(C)OB(OC(C)CC(C)(C)OB2OC(C)CC(C)(C)O2)O1 (stereo unspecified)
inactive: dose: 50.0 mg/kg/injection, schedule: Q01DX001 (ip), vehicle: saline 102 % of control | dose: 100.0 mg/kg/injection, schedule: Q01DX001 (ip), vehicle: saline 107 % of control | dose: 200.0 mg/kg/injection, schedule: Q01DX001 (ip), vehicle: saline 96 % of control | dose: 400.0 mg/kg/injection, schedule: Q01DX001 (ip), vehicle: saline 107 % of control

CSc1ccccc1NC(=O)NCCCl
inactive: [6] 100 % of control | [7] 98 % of control

[Br][Sb]([Br])([c]1ccccc1)([c]1ccccc1)[c]1ccccc1
inactive: dose: 50.0 mg/kg/injection, schedule: Q01DX009 (ip), vehicle: Klucel (hydroxypropylcellulose) (HPC) 91 % of control | dose: 100.0 mg/kg/injection, schedule: Q01DX009 (ip), vehicle: Klucel (hydroxypropylcellulose) (HPC) 97 % of control | [4] 90 % of control | dose: 200.0 mg/kg/injection, schedule: Q04DX002 (ip), vehicle: Klucel (hydroxypropylcellulose) (HPC) 87 % of control

CSc1cccc(N2C(=O)C=CC2=O)c1
inactive: dose: 2.5 mg/kg/injection, schedule: Q04DX002 (ip), vehicle: Klucel (hydroxypropylcellulose) (HPC) 92 % of control | dose: 5.0 mg/kg/injection, schedule: Q04DX002 (ip), vehicle: Klucel (hydroxypropylcellulose) (HPC) 88 % of control | dose: 10.0 mg/kg/injection, schedule: Q04DX002 (ip), vehicle: Klucel (hydroxypropylcellulose) (HPC) 95 % of control and 97 % of control

CC1CN=C(c2c(O)ccc3ccccc23)S1 (stereo unspecified)
inactive: dose: 100.0 mg/kg/injection, schedule: Q04DX002 (ip), vehicle: gum acacia 96 % of control | dose: 200.0 mg/kg/injection, schedule: Q04DX002 (ip), vehicle: gum acacia 93 % of control | dose: 400.0 mg/kg/injection, schedule: Q04DX002 (ip), vehicle: gum acacia 90 % of control

C1C2C3OC3C1C1C2C2C3CC(C4OC34)C12 (stereo unspecified)
inactive: [2] 94 % of control | dose: 100.0 mg/kg/injection, schedule: Q04DX003 (ip), vehicle: saline with Tween-80 100 % of control | [3] 94 % of control | dose: 200.0 mg/kg/injection, schedule: Q04DX003 (ip), vehicle: saline with Tween-80 101 % of control | dose: 400.0 mg/kg/injection, schedule: Q01DX009 (ip), vehicle: saline with Tween-80 94 % of control | dose: 400.0 mg/kg/injection, schedule: Q04DX003 (ip), vehicle: saline with Tween-80 97 % of control

Oc1ccccc1C=NCCN=Cc1ccccc1O.[CH3][Sn]([CH3])([Cl])[Cl]
inactive: [8] 102 % of control | dose: 25.0 mg/kg/injection, schedule: Q01DX009 (ip), vehicle: saline with Tween-80 110 % of control | [5] 107 % of control

N#CCSc1ncnc2nc[nH]c12
inactive: dose: 15.0 mg/kg/injection, schedule: Q01DX010 (ip), vehicle: saline 94 % of control and 116 % of control | dose: 30.0 mg/kg/injection, schedule: Q01DX010 (ip), vehicle: saline 97 % of control and 110 % of control | [1] 107 % of control | dose: 60.0 mg/kg/injection, schedule: Q01DX010 (ip), vehicle: saline 118 % of control and 121 % of control | dose: 62.5 mg/kg/injection, schedule: Q01DX Z (ip), vehicle: carboxymethylcellulose (CMC) 109 % of control | dose: 76.0 mg/kg/injection, schedule: Q01DX001 (ip), vehicle: carboxymethylcellulose (CMC) 110 % of control | dose: 114.0 mg/kg/injection, schedule: Q01DX001 (ip), vehicle: carboxymethylcellulose (CMC) 107 % of control | dose: 171.0 mg/kg/injection, schedule: Q01DX001 (ip), vehicle: carboxymethylcellulose (CMC) 113 % of control | dose: 256.5 mg/kg/injection, schedule: Q01DX001 (ip), vehicle: carboxymethylcellulose (CMC) 123 % of control
